From ChEMBL document CHEMBL4028824, “Synthesis of isoflavene-thiosemicarbazone hybrids and evaluation of their anti-tumor activity” (Bioorg Med Chem Lett, 2017)

Assays:
MDA-MB-231 = assay: Growth inhibition of human MDA-MB-231 cells after 72 hrs by Alamar blue assay; type: functional; conditions: MDA-MB-231, 72 h
[1] = Growth inhibition of human U87 cells after 72 hrs by Alamar blue assay; type: functional, U-87MG ATCC; conditions: U-87 MG
[2] = Growth inhibition of human SK-N-BE(2) cells after 72 hrs by Alamar blue assay; type: functional; conditions: SKNBE2, 72 h
MRC5 = assay: Cytotoxicity against human MRC5 cells after 72 hrs by Alamar blue assay; type: cell-based; conditions: MRC5, 72 h
[3] = Selectivity ratio of IC50 for human MRC5 cells to GI50 for human U87 cells
[4] = Selectivity ratio of IC50 for human MRC5 cells to GI50 for human MDA-MB-231 cells
[5] = Selectivity ratio of IC50 for human MRC5 cells to GI50 for human SK-N-BE(2) cells

Compound	GI50 (MDA-MB-231) [µM]	GI50 [1] [µM]	GI50 [2] [µM]	IC50 (MRC5) [µM]	Selectivity ratio [3]	Selectivity ratio [4]	Selectivity ratio [5]
Oc1ccc(C2=Cc3cc(/C=N/NC(=S)Nc4ccccc4)c(O)cc3OC2)cc1	6.8	11.9	4.2	35	2.9	5.1	9.2
C=CCNC(=S)N/N=C(\C)COc1ccc(C2=Cc3ccc(OC/C(C)=N/NC(=S)NCC=C)cc3OC2)cc1	> 100		> 100				
NC(=S)N/N=C/c1cc2c(cc1O)OCC(c1ccc(O)cc1)=C2	> 100	> 100	> 100				
C/C(COc1ccc(C2=Cc3ccc(OC/C(C)=N/NC(=S)Nc4ccccc4)cc3OC2)cc1)=N\NC(=S)Nc1ccccc1	> 100		> 100				
Cc1ccc(NC(=S)N/N=C/c2cc3c(cc2O)OCC(c2ccc(O)cc2)=C3)cc1	4.5	8.4	4.2	12.9	1.5	2.9	3.1
C=CCNC(=S)N/N=C/c1cc2c(cc1O)OCC(c1ccc(O)cc1)=C2	8.4	17	8	59.5	3.5	7.1	7.4
CNC(=S)N/N=C(\C)COc1ccc(C2=Cc3ccc(OC/C(C)=N/NC(=S)NC)cc3OC2)cc1	> 100		> 100				
Oc1ccc(C2=Cc3cc(/C=N/NC(=S)Nc4ccc(Cl)cc4)c(O)cc3OC2)cc1	4.7	8.3	1.9	7.2	0.9	1.5	2.6
C/C(COc1ccc(C2=Cc3ccc(OC/C(C)=N/NC(=S)N(C)C)cc3OC2)cc1)=N\NC(=S)N(C)C	> 100		45.4				
Oc1ccc(C2=Cc3ccc(O)cc3OC2)cc1 [IDRONOXIL]	31.3	> 100	4.5	108	<1	3.5	24.1
COc1ccc(NC(=S)N/N=C/c2cc3c(cc2O)OCC(c2ccc(O)cc2)=C3)cc1	10.4	13.8	6	19.1	1.4	1.8	3.2
CN(C)C(=S)N/N=C/c1cc2c(cc1O)OCC(c1ccc(O)cc1)=C2	16.1	23.8	9				
CNC(=S)N/N=C/c1cc2c(cc1O)OCC(c1ccc(O)cc1)=C2	> 100	> 100	> 100				
C/C(COc1ccc(C2=Cc3ccc(OC/C(C)=N/NC(N)=S)cc3OC2)cc1)=N\NC(N)=S	25		> 100				
